{"source": "patent US20110118134A1", "about": "“Biomarkers for insulin sensitizer drug response” (IKFE GmbH, priority 2008, published 2011)", "origin": "cited, not measured here", "tested_on": "MIF", "conditions": "six week treatment, eight non-diabetic patients with obesity"}
{"smiles": "CN(C)C(=N)N=C(N)N", "note": "[metformin]", "values": [{"measurement": "Plasma concentration of MIF and transcription of MIF mRNA in mononuclear cells", "value": "could be reduced"}]}
